# Measurements as given in patent US4937230A, “Method of healing wounds in horses” (ProCyte Corporation, priority 1987, dated 1990).
# Assays:
# [1] = system: full-thickness skin loss wound; assay: Full-thickness skin loss, topical treatment of horse I; type: in vivo
# Excerpt: History: Horse I suffered from a traumatic injury to the anterior mid-calf aspect of the rear leg, caused by striking a fence while jumping. A flap of skin initially remained over the approximately 2.5 inch diameter wound. The leg was bandaged for a brief time, and the dead skin flap removed within 10 days post-injury. The leg appeared swollen and inflamed.
# Inflammation and swelling had also diminished.
# [2] = system: granulation tissue ("proud flesh"); assay: Excessive accumulation of granulation tissue (proud flesh), topical treatment of horse K; type: in vivo; conditions: cream base 0.4% GHL:CU and 3% DMSO for one month
# Excerpt: History: An accumulation of unsightly granulation tissue or granuloma (known as "proud flesh") was present over a poorly healed wound (sight unspecified) in horse K. Typically, proud flesh often accompanies an insufficiently healing wound, appearing bubbly, swollen and nodular.
# [3] = system: puncture wound; assay: Puncture wound, topical treatment of horse D; type: in vivo; conditions: upper leg, cream base 0.4% GHL-CU and 3% DMSO, twice/day
# Method: History: A puncture wound of unknown origin occurred to the upper leg of horse D. No traditional therapy (antibiotics) was used prior to treatment.
# Treatment: A cream base containing 0.4% GHL-CU and 3% DMSO was applied to the wound site shortly after the wound was discovered. […] The treatment was performed twice/day.
# [4] = system: infected fly bites (raised nodules in the saddle region); assay: Saddle sores from fly bites, topical treatment of horse A; type: in vivo; conditions: cream base 0.4% GHL-CU and 6% DMSO, topical twice/daily
# Excerpt: History: Horse A suffered from fly bites which became infected and developed into irritating raised nodules located on the back in the saddle region over a period of 8 weeks.
# Treatment: A cream base containing 0.4% GHL-CU and 6% DMSO was applied twice/daily to the nodules. Within 4-5 days, softening of the nodules occurred along with diminishment of irritation and inflammation. Total healing occurred within 10-14 days.
# [5] = system: barbed-wire cuts/gashes; assay: Barbed-wire cuts/gashes, topical treatment of horses E, F and G; type: in vivo, horse
# Excerpt: (1) History: The skin of the hoof area of horse E was badly torn from barbed-wire.
# Treatment: A cream base containing 0.4% GHL:CU and 6% DMSO was applied to the area 2 times/day.
# (2) History: A 33-year-old horse (horse F) received a serious barbed wire wound to the lower leg directly into the cleft of the hoof. The wound area was ripped open, thereby dividing the hoof.
# Treatment: A cream base with 0.4% GHL-CU and 6% DMSO was applied 1-2 times/day.
# (3) History: A very deep barbed-wire induced gash on the upper rear leg of horse G was originally treated with antibiotics and closed with stitches.
# Treatment: A cream containing 0.4% GHL-CU and 6% DMSO was applied for 2 weeks (1-2 times/day).
# [6] = system: denuded area after injury (poor regrowth of hair); assay: Denuded area after injury, topical treatment of horses B and C; type: in vivo, horse; conditions: cream base 0.4% GHL-CU and 6% DMSO
# Method: (1) History: Approximately 2 months following wounding (lower leg, cause unspecified) healing occurred in horse B with poor regrowth of hair. The affected area measured approximately 2 square inches
# Treatment: A cream base containing 0.4% GHL-CU and 6% DMSO was applied to the denuded area 3-4 times/week. Substantial hair growth was noted after treatment for approximately 2-3 weeks.
# (2) History: An ulcerative sore on the back of Horse C below the saddle horn area (withers) was treated by a veterinarian using antibiotics and an antibacterial spray. […] Hair was absent from the partially healed sore.
# Treatment: A cream base consisting of 0.4% GHL-CU and 6% DMSO was applied 1-2 times/day. Within 3 weeks, the infected ulcerative area resolved and hair was noted to be covering the wound.
# [7] = system: ulcerating pressure-induced injury; assay: Ulcerating pressure-induced injury, topical treatment of horse J; type: in vivo
# Excerpt: History: A 12-year-old thoroughbred (horse J) developed a large ulcer (2 inch diameter) on top of the withers (back beneath saddle horn area) A veterinarian treated the wound with antibiotics and an antibacterial spray. […] The wound continued to be large and inflamed after 3-4 months
# Treatment: A cream containing 0.4% GHL:Cu with 6% DMSO was applied 1-2 times/day. The old scab fell off after a few days and was replaced by a new scab. After 2 weeks, the infection cleared up and ulceration began to be replaced by a skin covering. […] Approximately 1 month after beginning treatment, the ulcerative injury had resolved totally.
# [8] = system: rope burn; assay: Rope burn, topical treatment of horse H; type: in vivo; conditions: rear ankle, cream base 0.4% GHL-CU and 6% DMSO, 2 times/day
# Excerpt: The rope burn had removed all hair and skin. A veterinarian treated the burn with antibiotics and a nitrofurosone ointment. The scab was removed daily with washing. The injury responded, although quite slowly.
# Treatment: A cream base with 0.4% GHL-CU and 6% DMSO was applied to the burn 2 times/day. The scab was left on the area during the treatment period.
# [9] = horse F, cream base 0.4% GHL-CU and 6% DMSO, 1-2 times/day
compound,measurement,setting,value
Glycyl-L-Histidyl-L-Lysine octyl ester:Copper (II) [GHL-octyl ester Cu],wound size under continued treatment,[1]; 1 time/day over the following week,continued to decrease in size
same,reduction of wound size,"[1]; about 2.5 inch diameter wound, cream base 0.4% GHL-octyl ester Cu and 6% DMSO, 2 times/day for 2 weeks",~50%
same,inflammation and swelling,"[1]; after 2 weeks, 2 times/day",diminished
same,scab formation,"[1]; after 2 weeks, 2 times/day",a scab had formed over the area
Glycyl-L-Histidy-L-Lysine: Copper(II) [GHL:Cu],swelling and appearance of proud flesh,[2],notable reduction in swelling and improved appearance
same,healing of the wound,[3],healed within a few days
same,infection of the wound,[3],did not become infected
same,time to softening of the nodules with diminishment of irritation and inflammation,[4],4 to 5 days
same,time to total healing,[4],10 to 14 days
same,time until the wound scabbed over,"[5]; horse E, hoof area, cream base 0.4% GHL:CU and 6% DMSO, 2 times/day",5 days
same,examination of the wound 3 weeks after treatment,"[5]; horse E, hoof area, treatment halted after 5 days",no evidence of infection
same,new scab formation with reduction in wound size,"[5]; horse F, lower leg/hoof cleft, cream base 0.4% GHL-CU and 6% DMSO, 1-2 times/day",within a few days
same,time to almost total healing,[5]; [9],≤ 4 weeks
same,wound course over 2 weeks of treatment,[5]; [9],continuation of wound reduction and scab covering
same,"scab formation over open, raw tissue","[5]; horse G, dehisced gash upper rear leg, 6 inches x 1 inch, cream 0.4% GHL-CU and 6% DMSO, 1-2 times/day for 2 weeks",A scab formed quickly
same,wound closure,"[5]; horse G, cream 0.4% GHL-CU and 6% DMSO, 1-2 times/day for 2 weeks","Within weeks, the wound had begun to close and appeared healthy"
same,granulation of the gash,"[5]; horse G, noted when scab was removed during cleaning",granulated considerably
same,treatment time after which substantial hair growth was noted,"[6]; horse B, lower leg, about 2 square inches, 3-4 times/week",2-3 weeks
same,time to resolution of infected ulcerative area with hair covering the wound,"[6]; horse C, ulcerative sore on the back, 1-2 times/day",≤ 3 weeks
same,time until infection cleared up and ulceration began to be replaced by skin covering,"[7]; 2 inch diameter ulcer on withers, cream 0.4% GHL:Cu with 6% DMSO, 1-2 times/day",2 weeks
same,time until ulcerative injury had resolved totally,"[7]; cream 0.4% GHL:Cu with 6% DMSO, 1-2 times/day",Approximately 1 month
same,hair growth over the area,[7]; shortly after 2 weeks,hair began growing over the area
same,hair regrowth,[8],hair grew back over the area
same,healing of the wound,[8]; scab left on,healed up within a week
"NC(=O)N/N=C/c1ccc([N+](=O)[O-])o1 [nitrofurosone, reference compound]",effect of prior treatment on the dehisced wound,"[5]; horse G, 0.2% antibacterial agent",ineffective
